Reference: patent publication US11952328B2, “Selective ship inhibitors for treating disease” (THE RESEARCH FOUNDATION FOR THE STATE UNIVERSITY OF NEW YORK, priority 2018, dated 2024)

Tests used:
T and NK cells = test: Continuous dosing of patients with selective SHIP1 inhibitor; type: in vivo; details: administration periods of 3, 4, 5, 6, 7 or more days
Procedure: An effective dose of selective SHIP1 inhibitor (e.g. K223) is administered by any appropriate means (e.g., orally, intravenously, intraperitoneally) to a patient for administration periods of 3, 4, 5, 6, 7 or more days.

SHIP1 = target: T1, SHIP1 (Homo sapiens, UniProt Q92835); test: Malachite Green phosphatase assay; type: biochemical; details: at 1 nm and 500 μM
T1 sequence (Q92835 1-1189): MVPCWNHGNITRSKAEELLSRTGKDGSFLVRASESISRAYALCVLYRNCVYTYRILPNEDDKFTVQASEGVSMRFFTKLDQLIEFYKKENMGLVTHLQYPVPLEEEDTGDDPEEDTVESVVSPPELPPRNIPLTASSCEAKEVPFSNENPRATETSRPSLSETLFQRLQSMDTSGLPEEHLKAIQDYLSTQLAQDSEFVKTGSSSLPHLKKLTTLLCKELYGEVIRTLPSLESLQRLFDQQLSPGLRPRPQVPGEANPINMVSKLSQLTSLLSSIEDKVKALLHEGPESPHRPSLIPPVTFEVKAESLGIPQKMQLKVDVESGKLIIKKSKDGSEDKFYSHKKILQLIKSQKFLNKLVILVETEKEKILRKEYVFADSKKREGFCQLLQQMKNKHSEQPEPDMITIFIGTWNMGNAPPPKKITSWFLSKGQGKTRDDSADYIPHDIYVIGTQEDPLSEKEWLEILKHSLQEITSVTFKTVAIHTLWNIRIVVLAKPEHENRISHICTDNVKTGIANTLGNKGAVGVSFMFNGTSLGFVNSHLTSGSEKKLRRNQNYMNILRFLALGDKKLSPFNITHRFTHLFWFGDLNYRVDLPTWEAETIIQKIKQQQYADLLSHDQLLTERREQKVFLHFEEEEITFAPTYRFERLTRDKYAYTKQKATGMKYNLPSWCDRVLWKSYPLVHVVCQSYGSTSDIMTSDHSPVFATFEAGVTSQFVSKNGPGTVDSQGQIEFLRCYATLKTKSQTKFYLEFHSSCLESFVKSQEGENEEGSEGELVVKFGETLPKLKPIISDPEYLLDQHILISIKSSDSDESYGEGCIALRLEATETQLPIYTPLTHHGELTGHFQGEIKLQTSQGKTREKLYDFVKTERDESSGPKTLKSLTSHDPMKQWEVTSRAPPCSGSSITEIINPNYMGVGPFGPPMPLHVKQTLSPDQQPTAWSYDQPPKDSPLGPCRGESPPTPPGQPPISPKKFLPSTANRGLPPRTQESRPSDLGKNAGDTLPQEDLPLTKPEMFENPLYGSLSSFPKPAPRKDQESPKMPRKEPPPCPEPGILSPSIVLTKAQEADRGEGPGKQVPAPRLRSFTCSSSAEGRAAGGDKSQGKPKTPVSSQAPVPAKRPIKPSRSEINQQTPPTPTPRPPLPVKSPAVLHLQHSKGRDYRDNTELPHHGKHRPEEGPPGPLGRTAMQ
Description: FIGS. 2A-2C show the results of a SHIP1 malachite phosphatase assay. […] This predicts that the sulfonic acid is acting as a phosphate mimic, binding in active site where the 5′-phosphate of PIP3 binds.
K223 is an analog of EDANS, with the corresponding sulfonyl chloride of K223 being used as a donor for developing FRET-based nucleic acid probes and protease substrates. The docking pose of K223 with the model of the SHIP1 active site predicted that the sulfonic acid acts as a phosphate mimic, binding in the active site where the 5′-phosphate of PIP3 binds (FIG. 2B). The origin of the SHIP1 selectivity for K223 was not clear, however the nonpolar naphthalene core rests near K682 in the model of SHIP1, and this residue is a more polar arginine in SHIP2.

## NCCNc1cccc2cccc(S(=O)(=O)O)c12 [Compound K223, 8-((2-aminoethyl)amino)naphthalene-1-sulfonic acid]
T and NK cells
  responsiveness of activated T and NK cells: hyporesponsiveness
SHIP1
  inhibition of SHIP1: potent and selective inhibition of SHIP1
